Data on 19 molecules can be found in patent US8440830B2, “Tetrahydro-fused pyridines as histone deacetylase inhibitors” (4SC AG, priority 2007, dated 2013).

Read-outs that look alike come from different tables or passages of the source.

One assay relates to A549 NSCLC cells. The experiment in a line: Cellular cytotoxicity assay (Alamar Blue), A549. It counts as cell-based. As to conditions: Homo sapiens, 72 h, upper end given as ≧100, read-out: IC50 (μM), cytotoxicity towards A549 NSCLC cells. The essentials: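 Resazurin-to-resorufin fluorescence (ex 544, em 590 nm, after 4 h) gave viability as % of untreated cells following 72 h compound exposure at 37 °C. Compounds were added in semi-logarithmic dilutions 24 h post-seeding, quadruplicate wells; IC50 fitted by non-linear regression of concentration-effect curves.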

For assay [1], the system named is histone H3 hyperacetylation in HeLa cervical carcinoma cells. The experiment in a line: Cellular histone H3 hyperacetylation assay. It counts as cell-based. As to conditions: Homo sapiens, 24 h treatment. An excerpt: To assess the cellular efficacy of a histone deacetylase inhibitor in vitro, an assay is set up in black clear-bottom 96-well plates and optimized for use on the Cellomics “ArrayScan II” platform for a quantitative calculation of histone acetylation. The protocol uses a polyclonal rabbit antibody, specifically binding to acetylated lysine 1-20 (including K 9 and K14) of human histone H3 on fixed cells with an Alexa Fluor 488 labeled goat anti rabbit-IgG used for counterstaining 5×10^3 HeLa cervical carcinoma cells/well (ATCC CCL-2) in 200 μl Dulbecco's modified Eagle's medium (DMEM) containing 10% fetal calf serum are seeded at day 1 in Packard view plates and incubated for 24 h under standard cell culture conditions. On day 2, 1 μl test compound (200× final concentration) is added and incubation continued for further 24 h. On day 3, the culture medium is discarded and attached cells fixed for 15 min at room temperature by addition of 100 μl fixation buffer (3.7% v:v formaldehyde in phosphate buffered saline/PBS). After discarding the fixation buffer and one wash with blocking solution (1% BSA, 0.3% Tween 20 in PBS), cells are permeabilized at room temperature by addition of 100 μl /well permeabilization buffer (30.8 mM NaCl, 0.54 mM Na2HPO4, 0.31 mM KH2PO4, 0.1% v:v Triton X-100) for 15 min at room temperature. After discarding the permeabilization buffer and washing twice with 100 μl/well blocking solution at room temperature, the 1st antibody (anti-K1-20 histone H3 antibody, Calbiochem No. 382158) in blocking solution (50 μl/well) is added. After incubation for 1 h at room temperature, the wells are washed twice at room temperature with 100 μl/well blocking solution before addition of the 2nd antibody (goat-anti-rabbit Alexa Fluor 488; MoBiTec No. A -11008) in blocking solution (50 μl well). After further incubation for 1 h at room temperature, wells are washed twice with 100 μl/well blocking solution at room temperature. Finally, 100 μl/well PBS are added and image analysis performed on the Cellomics “ArrayScan II” platform. For EC50 determination, the percentage of positive cells showing nuclear fluorescence is determined and EC50 calculation done from concentration-effect curves by means of non-linear regression. For calibration, a positive (reference HDAC inhibitors like SAHA or NVP LBH-589) and a negative control were included.

Setting [2] is: read-out: EC50, induction of histone H3 hyperacetylation.
Where [3] appears, read: read-out: −lg EC50, induction of histone H3 hyperacetylation.

In general, IC50 refers to the midpoint of a concentration-inhibition curve. For orientation: EC50 means the concentration giving half of the maximal effect. With `COCCNC(=O)N1CCc2nc(C(=O)Nc3ccccc3N)sc2C1` [Example 16, N^2-(2-aminophenyl)-N^5-(2-methoxyethyl)-6,7-dihydro[1,3]thiazolo[5,4-c]-pyridine-2,5(4H)-dicarboxamide], the IC50 with A549 NSCLC cells was not below 0.2 µM. In addition, the EC50 in assay [1] (setting [2]) lay in the range of 150 to 15000 nM; in assay [1] (setting [3]), 251 to 15800 nM.
On to `CN(C)c1cccc(NC(=O)N2CCc3nc(C(=O)Nc4ccccc4N)sc3C2)c1` [Example 18, N^2-(2-aminophenyl)-N^5-[3-(dimethylantino)phenyl]-6,7-dihydro[1,3]thiazolo[5,4-c]pyridine-2,5(4H)-dicarboxamide], for which the IC50 in the assay on A549 NSCLC cells was not below 0.2 µM. Further, the results for the EC50 in assay [1] (setting [2]) and in assay [1] (setting [3]) were 150 to 15000 nM and 251 to 15800 nM, respectively.
For `COC(=O)N1CCc2nc(C(=O)Nc3ccccc3N)sc2C1` [Example 180, Methyl 2-[(2-aminophenyl)carbamoyl]-6,7-dihydro[1,3]thiazolo[5,4-c]pyridine-5(4H)-carboxylate], in that order: not below 0.2 µM, 150 to 15000 nM and 251 to 15800 nM.
For `Nc1ccccc1NC(=O)c1nc2c(s1)CN(C(=O)NCc1ccccc1)CC2` [Example 4, N^2-(2-aminophenyl)-N5-benzyl-6,7-dihydro[1,3]thiazolo[5,4-c]pyridine-2,5(4H)-dicarboxamide], in that order: not below 0.2 µM, 150 to 15000 nM and 251 to 15800 nM.
For `Cc1ccc(S(=O)(=O)Nc2cnc(N3CCc4nc(C(=O)Nc5ccccc5N)sc4C3)nc2)cc1` [Example 196, N-(2-aminophenyl)-5-(5-{[(4-methylphenyl)sulfonyl]amino}pyrimidin-2-yl)-4,5,6,7-tetrahydro[1,3]thiazolo[5,4-c]pyridine-2-carboxamide], in that order: not below 0.2 µM, 150 to 15000 nM and 251 to 15800 nM.
On to `Cc1ccc(S(=O)(=O)Nc2ccc(N3CCc4nc(C(=O)Nc5ccccc5N)sc4C3)nc2)cc1` [Example 197, N-(2-aminophenyl)-5-(5-{[(4-methylphenyl)sulfonyl]amino}pyridin-2-yl)-4,5,6,7-tetrahydro[1,3]thiazolo[5,4-c]pyridine-2-carboxamide], for which the IC50 in the assay on A549 NSCLC cells was not below 0.2 µM. The EC50 is 150 to 15000 nM in assay [1] (setting [2]) and 251 to 15800 nM in assay [1] (setting [3]).
On the same counts, the results for `COc1ccc(OC(=O)N2CCc3nc(C(=O)Nc4ccccc4N)sc3C2)cc1` [Example 183, 4-methoxyphenyl 2-[(2-aminophenyl)carbamoyl]-6,7-dihydro[1,3]thiazolo[5,4-c]pyridine-5(4H)-carboxylate] are not below 0.2 µM, 150 to 15000 nM and 251 to 15800 nM.
On the same counts, the results for `COc1ccc(NC(=NC#N)N2CCc3nc(C(=O)Nc4ccccc4N)sc3C2)cc1OC` [Example 118, N-(2-aminophenyl)-5-{(cyanoimino)[(3,4-dimethoxyphenyl)amino]methyl}-4,5,6,7-tetrahydro[1,3]thiazolo[5,4-c]pyridine-2-carboxamide] are not below 0.2 µM, 150 to 15000 nM and 251 to 15800 nM.
As for `Nc1ccccc1NC(=O)c1nc2c(s1)CN(C(=O)COc1ccc(-c3ccccc3)cc1)CC2` [Example 176, N-(2-aminophenyl)-5-[(biphenyl-4-yloxy)acetyl]-4,5,6,7-tetrahydro[1,3]thiazolo[5,4-c]pyridine-2-carboxamide], the IC50 in the assay on A549 NSCLC cells is not below 0.2 µM. For the same molecule, the EC50 in assay [1] (setting [2]) lay within 150 to 15000 nM; in assay [1] (setting [3]), 251 to 15800 nM.
For `Nc1ccccc1NC(=O)c1nc2c(s1)CN(C(=O)C=Cc1ccc(O)c(O)c1)CC2` [Example 191, N-(2-aminophenyl)-5-[3-(3,4-dihydroxyphenyl)prop-2-enoyl]-4,5,6,7-tetrahydro[1,3]thiazolo[5,4-c]pyridine-2-carboxamide], in that order: not below 0.2 µM, 150 to 15000 nM and 251 to 15800 nM.
For `Nc1ccccc1NC(=O)c1nc2c(s1)CN(C(=O)Nc1cccnc1)CC2` [Example 39, N^2-(2-aminophenyl)-N^5-pyridin-3-yl-6,7-dihydro[1,3]thiazolo[5,4-c]pyridine-2,5(4H)-dicarboxamide], in that order: not below 0.2 µM, 150 to 15000 nM and 251 to 15800 nM.
On the same counts, the results for `Nc1ccccc1NC(=O)c1nc2c(s1)CN(c1ccc([N+](=O)[O-])cn1)CC2` [Example 194, N-(2-aminophenyl)-5-(5-nitropyridin-2-yl)-4,5,6,7-tetrahydro[1,3]thiazolo[5,4-c]pyridine-2-carboxamide] are not below 0.2 µM, 150 to 15000 nM and 251 to 15800 nM.
In the case of `N#CN=C(Nc1ccccc1)N1CCc2nc(C(=O)Nc3ccccc3N)sc2C1` [Example 116, N-(2-aminophenyl)-5-[anilino(cyanoimino)methyl]-4,5,6,7-tetrahydro[1,3]thiazolo[5,4-c]pyridine-2-carboxamide], the IC50 in the assay on A549 NSCLC cells was not below 0.2 µM. Moreover, the concentration giving a half-maximal response (EC50) in assay [1] (setting [2]) lay within 150 to 15000 nM; in assay [1] (setting [3]), 251 to 15800 nM.
For `CN(C)c1ccc(NC(=O)N2CCc3nc(C(=O)Nc4ccccc4N)sc3C2)cn1` [Example 36, N^2-(2-aminophenyl)-N^5-[6-(dimethylamino)pyridin-3-yl]-6,7-dihydro[1,3]thiazolo[5,4-c]pyridine-2,5(4H)-dicarboxamide], in that order: not below 0.2 µM, 150 to 15000 nM and 251 to 15800 nM.
`Nc1ccccc1NC(=O)c1nc2c(s1)CN(c1nccc(-c3cccnc3)n1)CC2` [Example 193, N-(2-aminophenyl)-5-(4-pyridin-3-ylpyrimidin-2-yl)-4,5,6,7-tetrahydro[1,3]thiazolo[5,4-c]pyridine-2-carboxamide]: the IC50 in the assay with A549 NSCLC cells is not below 0.2 µM. Moreover, the half-maximal effective concentration (EC50) in assay [1] (setting [2]) lay within 150 to 15000 nM; in assay [1] (setting [3]), 251 to 15800 nM.
For `Nc1ccccc1NC(=O)c1nc2c(s1)CN(C(=O)Nc1ccc3c(c1)OCO3)CC2` [Example 7, N^2-(2-aminophenyl)-N5-1,3-benzodioxol-5-yl-6,7-dihydro[1,3]thiazolo[5,4-c]pyridine-2,5(4H)-dicarboxamide], in that order: not below 0.2 µM, 150 to 15000 nM and 251 to 15800 nM.
Regarding `Cc1ccc(C(=O)N2CCc3nc(C(=O)Nc4ccccc4N)sc3C2)cn1` [Example 96, N-(2-aminophenyl)-5-[(6-methylpyridin-3-yl)carbonyl]-4,5,6,7-tetrahydro-[1,3]thiazolo[5,4-c]pyridine-2-carboxamide], the concentration for half-maximal inhibition (IC50) in the assay on A549 NSCLC cells was not below 0.2 µM. The EC50 is 150 to 15000 nM in assay [1] (setting [2]) and 251 to 15800 nM in assay [1] (setting [3]).
For `CN1CCN(c2ccc(NC(=O)N3CCc4nc(C(=O)Nc5ccccc5N)sc4C3)cn2)CC1` [Example 37, N^2-(2-aminophenyl)-N^5-[6-(4-methylpiperazin-1-yl)pyridin-3-yl]-6,7-dihydro[1,3]thiazolo[5,4-c]pyridine-2,5(4H)-dicarboxamide], in the assay on A549 NSCLC cells, the IC50 is not below 0.2 µM. Besides, the EC50 in assay [1] (setting [2]) is 150 to 15000 nM; in assay [1] (setting [3]), 251 to 15800 nM.
For `Nc1ccccc1NC(=O)c1nc2c(s1)CN(C(=O)Nc1ccncc1)CC2` [Example 15, N^2-(2-aminophenyl)-N^5-pyridin-4-yl-6,7-dihydro[1,3]thiazolo[5,4-c]pyridine-2,5(4H)-dicarboxamide], in that order: not below 0.2 µM, 150 to 15000 nM and 251 to 15800 nM.
